From ChEMBL document CHEMBL4376815, “The Development Process for Discovery and Clinical Advancement of Modern Antimalarials” (J Med Chem, 2019)

Key:
[1] = Plasma clearance in dog; format: ADME, Canis lupus familiaris
[2] = system: Plasmodium falciparum; assay: Antimalarial activity against stage 5 Plasmodium falciparum assessed as reduction in oocyst formation in mosquito midgut pretreated 24 hrs before feeding by standard membrane-feeding assay; format: functional, organism-based
[3] = Inhibition of Plasmodium vivax PI4K
[4] = Plasma clearance in rat; format: ADME
[5] = Plasma clearance in human at 80 to 100 mg; format: ADME
[6] = Half life in human at 5 to 120 mg,po in fed condition; format: ADME; conditions: in vivo
[7] = system: Plasmodium falciparum; assay: Ex-vivo antimalarial activity against Plasmodium falciparum serum derived from 40 mg, po treated human after 144 hrs; format: functional, organism-based
[8] = Volume of distribution in mouse; format: ADME, organism-based; conditions: in vivo
[9] = molecular target: Sodium channel protein type 5 subunit alpha (Homo sapiens, UniProt Q14524); assay: Inhibition of Nav1.5 (unknown origin)
[10] = Half life in monkey; format: ADME, Macaca mulatta; conditions: rhesus monkey, in vivo
[11] = Half life in dog; format: ADME, Canis lupus familiaris; conditions: in vivo
[12] = Half life in human at 5 to 120 mg,po in fast condition; format: ADME; conditions: in vivo
[13] = Volume of distribution in rat; format: ADME; conditions: in vivo
[14] = Half life in rat; format: ADME; conditions: in vivo
[15] = system: Plasmodium cynomolgi; assay: Antimalarial activity against hypnozoites stage Plasmodium cynomolgi infected in primary rhesus monkey hepatocytes; format: functional, organism-based
[16] = Half life in human at 80 to 100 mg; format: ADME
[17] = system: Plasmodium cynomolgi; assay: Antimalarial activity against hypnozoites stage Plasmodium cynomolgi infected in primary rhesus monkey hepatocytes measured on day 5; format: functional, organism-based; conditions: 120 h
[18] = system: Plasmodium berghei; assay: Antimalarial activity against Plasmodium berghei infected in mouse assessed reduction in parasitemia; format: functional; design: scale not given: the % may be the effect or the level left
[19] = system: Plasmodium falciparum; assay: Antimalarial activity against early stage Plasmodium falciparum gametocytes by luciferase reporter gene assay; format: functional, organism-based
[20] = Volume of distribution in human at 80 to 100 mg; format: ADME
[21] = system: Plasmodium falciparum; assay: Antimalarial activity against stage 5 Plasmodium falciparum assessed as reduction in oocyst formation in mosquito midgut at 1 uM after 24 hrs by standard membrane-feeding assay relative to control; format: functional; design: scale not given: the % may be the effect or the level left
[22] = Oral bioavailability in monkey; format: ADME, organism-based, Macaca mulatta; conditions: rhesus monkey, in vivo
[23] = system: Plasmodium falciparum; assay: Antimalarial activity Plasmodium falciparum infected in po dosed SCID mouse assessed as reduction in parasite growth administered daily for 4 consecutive days and measured on day 7 by flow cytometric analysis; format: functional; conditions: 168 h
[24] = Oral bioavailability in dog; format: ADME, organism-based, Canis lupus familiaris; conditions: in vivo
[25] = Half life in mouse; format: ADME, organism-based; conditions: in vivo
[26] = AUC in human at 5 to 120 mg,po in fed condition; format: ADME; conditions: in vivo
[27] = system: Plasmodium falciparum; assay: Antimalarial activity against late stage Plasmodium falciparum gametocytes assessed as reduction in gametogenesis exflagellation after 24 hrs; format: functional, organism-based
[28] = Volume of distribution in dog; format: ADME, Canis lupus familiaris; conditions: in vivo
[29] = Plasma clearance in mouse; format: ADME, organism-based
[30] = system: Plasmodium falciparum; assay: Antimalarial activity against late stage Plasmodium falciparum gametocytes by luciferase reporter gene assay; format: functional, organism-based
[31] = AUC (0 to infinity) in human at 5 to 120 mg,po; format: ADME; conditions: in vivo
[32] = AUC in human at 5 to 120 mg,po in fast condition; format: ADME; conditions: in vivo
[33] = Half life in human at 5 to 120 mg,po; format: ADME; conditions: in vivo
[34] = molecular target: Voltage-dependent L-type calcium channel subunit alpha-1C (Homo sapiens, UniProt Q13936); assay: Inhibition of Cav1.2 (unknown origin)
[35] = system: Plasmodium cynomolgi; assay: Antimalarial activity against schizont stage Plasmodium cynomolgi infected in primary rhesus monkey hepatocytes; format: functional, organism-based

Voltage-dependent L-type calcium channel subunit alpha-1C, sequence (Q13936 whole entry): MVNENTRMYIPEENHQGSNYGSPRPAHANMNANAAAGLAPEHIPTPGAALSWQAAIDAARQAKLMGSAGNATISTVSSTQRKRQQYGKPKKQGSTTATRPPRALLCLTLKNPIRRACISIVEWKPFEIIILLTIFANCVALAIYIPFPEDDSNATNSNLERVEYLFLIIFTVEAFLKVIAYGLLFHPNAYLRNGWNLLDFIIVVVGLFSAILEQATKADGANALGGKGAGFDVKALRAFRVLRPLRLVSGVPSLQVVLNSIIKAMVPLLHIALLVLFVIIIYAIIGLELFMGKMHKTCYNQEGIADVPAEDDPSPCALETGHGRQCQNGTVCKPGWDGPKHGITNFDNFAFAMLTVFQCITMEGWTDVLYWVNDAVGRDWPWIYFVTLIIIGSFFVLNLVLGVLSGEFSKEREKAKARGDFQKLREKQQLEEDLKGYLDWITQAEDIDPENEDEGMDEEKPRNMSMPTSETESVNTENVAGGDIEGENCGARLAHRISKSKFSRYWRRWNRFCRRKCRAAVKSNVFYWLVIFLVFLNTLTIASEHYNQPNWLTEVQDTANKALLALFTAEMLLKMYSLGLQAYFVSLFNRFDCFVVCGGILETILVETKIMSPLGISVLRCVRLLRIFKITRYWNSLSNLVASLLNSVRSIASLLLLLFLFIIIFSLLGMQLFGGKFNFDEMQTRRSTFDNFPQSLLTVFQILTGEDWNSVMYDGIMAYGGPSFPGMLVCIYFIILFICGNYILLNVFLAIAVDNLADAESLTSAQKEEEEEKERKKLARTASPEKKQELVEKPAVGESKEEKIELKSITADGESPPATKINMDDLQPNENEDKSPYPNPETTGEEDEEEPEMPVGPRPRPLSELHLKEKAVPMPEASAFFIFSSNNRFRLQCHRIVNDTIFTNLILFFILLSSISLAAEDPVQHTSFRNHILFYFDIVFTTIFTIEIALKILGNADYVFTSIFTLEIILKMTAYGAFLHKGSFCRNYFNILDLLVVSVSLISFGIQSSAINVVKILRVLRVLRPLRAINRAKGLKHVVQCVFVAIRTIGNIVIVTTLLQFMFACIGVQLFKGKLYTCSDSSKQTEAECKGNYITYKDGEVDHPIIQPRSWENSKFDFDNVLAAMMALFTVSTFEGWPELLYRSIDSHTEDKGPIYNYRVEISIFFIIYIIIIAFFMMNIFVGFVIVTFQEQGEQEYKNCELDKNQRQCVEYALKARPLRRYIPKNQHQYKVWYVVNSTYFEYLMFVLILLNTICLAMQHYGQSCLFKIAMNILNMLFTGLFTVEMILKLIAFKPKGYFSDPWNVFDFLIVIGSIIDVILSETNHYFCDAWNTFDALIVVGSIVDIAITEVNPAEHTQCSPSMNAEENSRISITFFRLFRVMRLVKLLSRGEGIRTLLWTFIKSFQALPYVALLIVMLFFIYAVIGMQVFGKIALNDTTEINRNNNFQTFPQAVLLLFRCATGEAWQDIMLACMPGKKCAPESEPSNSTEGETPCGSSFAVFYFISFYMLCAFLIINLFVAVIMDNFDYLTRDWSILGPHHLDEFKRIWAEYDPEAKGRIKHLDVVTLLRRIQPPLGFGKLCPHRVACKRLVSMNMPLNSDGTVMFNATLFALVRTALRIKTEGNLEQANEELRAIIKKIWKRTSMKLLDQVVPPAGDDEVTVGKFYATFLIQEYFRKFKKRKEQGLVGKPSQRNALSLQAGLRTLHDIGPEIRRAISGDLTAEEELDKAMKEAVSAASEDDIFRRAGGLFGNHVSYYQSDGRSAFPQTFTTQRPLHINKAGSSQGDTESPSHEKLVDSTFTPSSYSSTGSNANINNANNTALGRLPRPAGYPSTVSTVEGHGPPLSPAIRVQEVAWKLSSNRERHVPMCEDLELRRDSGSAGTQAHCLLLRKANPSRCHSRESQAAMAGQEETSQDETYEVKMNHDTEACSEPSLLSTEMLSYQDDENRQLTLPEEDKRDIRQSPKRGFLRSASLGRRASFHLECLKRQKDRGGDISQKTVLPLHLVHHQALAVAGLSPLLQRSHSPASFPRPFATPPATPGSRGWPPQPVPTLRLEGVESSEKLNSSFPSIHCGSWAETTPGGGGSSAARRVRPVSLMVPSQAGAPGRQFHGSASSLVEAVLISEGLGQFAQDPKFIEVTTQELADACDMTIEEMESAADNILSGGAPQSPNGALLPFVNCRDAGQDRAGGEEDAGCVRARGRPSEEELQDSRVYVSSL
Sodium channel protein type 5 subunit alpha, sequence (Q14524 whole entry): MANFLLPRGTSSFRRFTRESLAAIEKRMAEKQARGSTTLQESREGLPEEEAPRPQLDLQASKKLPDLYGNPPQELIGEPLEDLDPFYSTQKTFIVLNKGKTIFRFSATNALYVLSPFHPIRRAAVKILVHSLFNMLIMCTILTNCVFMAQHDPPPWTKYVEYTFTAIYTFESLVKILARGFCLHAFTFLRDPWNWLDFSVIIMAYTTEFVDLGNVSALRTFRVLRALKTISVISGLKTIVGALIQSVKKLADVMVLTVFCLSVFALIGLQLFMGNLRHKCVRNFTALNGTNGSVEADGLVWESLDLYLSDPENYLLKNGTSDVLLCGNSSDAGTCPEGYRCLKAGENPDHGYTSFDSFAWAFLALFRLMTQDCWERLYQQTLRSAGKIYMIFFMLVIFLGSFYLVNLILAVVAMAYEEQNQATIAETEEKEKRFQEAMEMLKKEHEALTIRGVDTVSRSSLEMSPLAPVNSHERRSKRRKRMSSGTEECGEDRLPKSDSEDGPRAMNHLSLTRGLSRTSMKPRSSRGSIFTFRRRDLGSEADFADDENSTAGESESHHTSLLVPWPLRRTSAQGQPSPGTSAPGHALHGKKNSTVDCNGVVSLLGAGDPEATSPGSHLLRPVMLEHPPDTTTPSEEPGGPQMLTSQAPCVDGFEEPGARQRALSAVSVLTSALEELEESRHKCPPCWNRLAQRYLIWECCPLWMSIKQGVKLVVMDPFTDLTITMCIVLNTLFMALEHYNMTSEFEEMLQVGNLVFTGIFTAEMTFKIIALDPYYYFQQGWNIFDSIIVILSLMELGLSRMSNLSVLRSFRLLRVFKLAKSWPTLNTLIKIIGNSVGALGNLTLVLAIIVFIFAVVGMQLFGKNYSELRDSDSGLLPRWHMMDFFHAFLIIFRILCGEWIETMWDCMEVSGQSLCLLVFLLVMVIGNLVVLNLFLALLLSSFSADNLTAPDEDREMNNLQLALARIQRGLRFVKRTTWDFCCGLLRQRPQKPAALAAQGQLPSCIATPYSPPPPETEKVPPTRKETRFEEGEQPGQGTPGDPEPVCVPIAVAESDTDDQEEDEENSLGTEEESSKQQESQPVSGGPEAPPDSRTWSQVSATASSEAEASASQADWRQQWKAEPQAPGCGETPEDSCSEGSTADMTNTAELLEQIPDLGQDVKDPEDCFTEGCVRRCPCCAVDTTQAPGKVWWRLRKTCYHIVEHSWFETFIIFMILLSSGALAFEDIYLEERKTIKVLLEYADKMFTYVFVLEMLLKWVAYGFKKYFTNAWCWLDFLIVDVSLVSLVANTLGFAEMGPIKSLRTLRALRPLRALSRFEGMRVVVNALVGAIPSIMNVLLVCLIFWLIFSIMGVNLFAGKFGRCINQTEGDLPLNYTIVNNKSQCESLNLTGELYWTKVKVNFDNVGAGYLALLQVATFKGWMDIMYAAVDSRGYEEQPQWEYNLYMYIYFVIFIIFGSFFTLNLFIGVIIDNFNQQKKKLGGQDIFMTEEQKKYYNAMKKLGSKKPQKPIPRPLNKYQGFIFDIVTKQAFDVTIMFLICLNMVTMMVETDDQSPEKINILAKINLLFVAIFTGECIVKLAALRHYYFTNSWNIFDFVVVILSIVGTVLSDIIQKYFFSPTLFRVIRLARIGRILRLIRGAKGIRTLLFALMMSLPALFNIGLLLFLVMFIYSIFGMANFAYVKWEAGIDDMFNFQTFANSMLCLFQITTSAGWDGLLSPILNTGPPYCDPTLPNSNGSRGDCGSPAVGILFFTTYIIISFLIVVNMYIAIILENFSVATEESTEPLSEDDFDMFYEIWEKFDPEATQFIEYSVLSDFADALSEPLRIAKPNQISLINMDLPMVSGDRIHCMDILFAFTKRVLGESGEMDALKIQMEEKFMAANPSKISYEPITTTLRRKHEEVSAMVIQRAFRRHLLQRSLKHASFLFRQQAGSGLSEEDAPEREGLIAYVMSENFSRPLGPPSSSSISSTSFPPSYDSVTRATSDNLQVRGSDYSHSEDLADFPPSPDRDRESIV

clearance [1]: 0.6 mL/min/kg
IC50 [3]: 3.4 nM
clearance [4]: 6.5 mL/min/kg
clearance [5]: 0.333 mL/min
half-life [6]: 210 h
EC50 [7]: 24 nM
Vd [8]: 1.3 to 3 L/kg
half-life [10]: 56 h
half-life [11]: 58 h
half-life [12]: 193 h
Vd [13]: 1.3 to 3 L/kg
half-life [14]: 9.2 h
half-life [16]: 90 h
EC50 [19]: 214 nM
Vd [20]: 2.8 L/kg
bioavailability [22]: 74%
bioavailability [24]: 45%
half-life [25]: 5.6 h
AUC [26]: 29000 ng·h/mL
EC50 [27]: 90 nM
Vd [28]: 1.3 to 3 L/kg
clearance [29]: 3 mL/min/kg
EC50 [30]: 140 nM
AUC(0-inf) [31]: 2140 to 156000 ng·h/mL
AUC [32]: 21000 ng·h/mL
half-life [33]: 163 to 252 h
Compound: CS(=O)(=O)c1ccc(-c2cnc(N)c(-c3ccc(C(F)(F)F)nc3)c2)cc1 [MMV-048]
EC50 [2]: 111 nM
IC50 [9]: > 10000 nM
EC50 [15]: 61 nM
EC50 [17]: > 10000 nM
Activity [18]: 98 - 99.5%
Activity [21]: >25%
ED90 [23]: 0.57 mg/kg
ED99 [23]: 1.1 mg/kg
IC50 [34]: > 10000 nM
EC50 [35]: 64 nM
